According to US4391824A, “Ureylenebis (hydroxy naphthalenesulfonic acids)” (American Cyanamid Company, priority 1981, dated 1983):
“And” between values parts separate entries of the source, which are not always exact repeats. Identical values can stand only once. Counter-ions that a name gives are not always drawn. One block for each compound: values may come before it.

Assays:
[1] = biological target: T1, human skin fibroblast collagenase (Homo sapiens, UniProt P03956); assay: Collagenase Assay, Test Code 006 (degradation of 14C-labeled native collagen fibrils); format: biochemical; conditions: 16 hours at 37° C., based on 0% value for enzyme control; for inhibition at 30 µg/mL / % Inhibition of Collagenase: test concentration 30 μg/ml
T1 construct: endogenous in cells; host or cells: human skin fibroblasts (from the enzyme's name; preparation not described)
T1 sequence (P03956 100-469): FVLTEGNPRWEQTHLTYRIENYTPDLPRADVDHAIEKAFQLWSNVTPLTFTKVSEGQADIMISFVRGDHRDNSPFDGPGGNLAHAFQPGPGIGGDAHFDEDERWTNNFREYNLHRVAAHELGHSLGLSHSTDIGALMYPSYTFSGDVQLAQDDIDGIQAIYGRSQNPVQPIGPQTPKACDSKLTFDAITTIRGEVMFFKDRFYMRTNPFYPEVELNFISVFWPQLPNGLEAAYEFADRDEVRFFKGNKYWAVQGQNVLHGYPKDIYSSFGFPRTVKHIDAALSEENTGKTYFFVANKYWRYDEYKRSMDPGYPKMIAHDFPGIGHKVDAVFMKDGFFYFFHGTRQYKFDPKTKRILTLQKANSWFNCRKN
Method: Collagenase assays were performed by a modification of the method of Harper, et. al., Biochem. 10: 3035 (1971). In a typical assay (total volume of 0.45 ml), 100 μl of the activated enzyme was added to the 14 C-labeled collagen fibrils (250 μl) followed by 100 μl of 50 mM cacodylate, pH 7.4, containing 5 mM calcium chloride. After incubation at 37° C. for 16 hours, the tubes were centrifuged in a Beckman microfuge for five minutes at full speed. An aliquot (200 μl) of the supernatant, representing collagenase digestion products of the fibril, was assayed for radioactivity. The effect of the test compound on collagen degradation by collagenase was examined as follows:
Varying concentrations of the test compound (in distilled water or dimethylacetamide) were added to the assay tubes containing active collagenase (total volume 450 μl) and after 16 hours the amount of radioactivity in the supernatant was determined. Appropriate blanks and trypsin controls were run in parallel.
The activities are expressed as % inhibition (lowering) of collagenase activity, i.e., based on the 0% value for the enzyme control.

corneal ulcerations = conditions: alkali burned rabbit, eye; cited from earlier work
collagenase = conditions: collagenase, or a proteinase contaminant in the collagenase preparation; cited from earlier work
corneal ulceration = conditions: human; cited from earlier work

SMILES: O=C(Nc1cccc(C(=O)Nc2cc3c(O)cc(S(=O)(=O)O)cc3cc2S(=O)(=O)O)c1)Nc1cccc(C(=O)Nc2cc3c(O)cc(S(=O)(=O)O)cc3cc2S(=O)(=O)O)c1 [3,3'-[Ureylenebis(m-phenylenecarbonylimino)]bis[5-hydroxy-2,7-naphthalenedisulfonic acid]tetrasodium salt]
inhibition at 30 µg/mL [1]: 41%

SMILES: O=C([O-])CN(CCN(CC(=O)[O-])CC(=O)[O-])CC(=O)[O-].[Ca+2].[Ca+2] [Calcium ethylenediaminetetraacetate]
frequency of ulceration (corneal ulcerations): reduce the frequency of ulceration

SMILES: Cc1ccc(C(=O)Nc2ccc(S(=O)(=O)O)c3cc(S(=O)(=O)O)cc(S(=O)(=O)O)c23)cc1NC(=O)c1cccc(NC(=O)Nc2cccc(C(=O)Nc3cc(C(=O)Nc4ccc(S(=O)(=O)O)c5cc(S(=O)(=O)O)cc(S(=O)(=O)O)c45)ccc3C)c2)c1 [Suramin]
inhibition of the activity of collagenase (collagenase): not inhibiting the action of collagenase

SMILES: CC(=O)N[C@@H](CS)C(=O)O [acetylcysteine]
frequency of ulceration (corneal ulcerations): reduce the frequency of ulceration
effectiveness in treatment of acute and chronic corneal ulceration (corneal ulceration): effective

SMILES: N[C@@H](CS)C(=O)O [cysteine]
effectiveness in treatment of acute and chronic corneal ulceration (corneal ulceration): effective

SMILES: Cc1cc(-c2ccc(/N=N/c3c(S(=O)(=O)O)cc4cc(S(=O)(=O)O)cc(N)c4c3O)c(C)c2)ccc1/N=N/c1c(S(=O)(=O)O)cc2cc(S(=O)(=O)O)cc(N)c2c1O [trypan blue]
inhibition of the activity of collagenase (collagenase): inhibiting the activity of collagenase

Now from value to compound:

% Inhibition of Collagenase [1]: 45%
inhibition at 30 µg/mL [1]: 32.2%
SMILES: Cc1c(NC(=O)Nc2cccc(C(=O)Nc3cc(S(=O)(=O)O)cc4cc(S(=O)(=O)O)cc(O)c34)c2C)cccc1C(=O)Nc1cc(S(=O)(=O)O)cc2cc(S(=O)(=O)O)cc(O)c12 [4,4'-[Ureylenebis(2-methyl-3,1-phenylenecarbonylimino)]bis[5-hydroxy-2,7-naphthalenedisulfonic acid]tetrasodium salt]

inhibition at 30 µg/mL [1]: 78%
SMILES: Cc1cc(C(=O)Nc2cc(S(=O)(=O)O)cc3cc(S(=O)(=O)O)cc(O)c23)ccc1NC(=O)Nc1ccc(C(=O)Nc2cc(S(=O)(=O)O)cc3cc(S(=O)(=O)O)cc(O)c23)cc1C [4,4'-[Ureylenebis(3-methyl-p-phenylenecarbonylimino)]bis[5-hydroxy-2,7-naphthalenedisulfonic acid]tetrasodium salt]

% Inhibition of Collagenase [1]: 36% and 35%
inhibition at 30 µg/mL [1]: 50%
inhibition at 60 µg/mL ([1]; test concentration 60 μg/ml): 39%
SMILES: Cc1ccc(NC(=O)Nc2ccc(C)c(C(=O)Nc3cc(S(=O)(=O)O)cc4cc(S(=O)(=O)O)cc(O)c34)c2)cc1C(=O)Nc1cc(S(=O)(=O)O)cc2cc(S(=O)(=O)O)cc(O)c12 [4,4'-[Ureylenebis(6-methyl-3,1-phenylenecarbonylimino)]bis[5-hydroxy-2,7-naphthalenedisulfonic acid]tetrasodium salt]

inhibition at 30 µg/mL [1]: 41%
SMILES: O=C(Nc1cccc(C(=O)Nc2cc(S(=O)(=O)O)cc3cc(S(=O)(=O)O)cc(O)c23)c1)Nc1cccc(C(=O)Nc2cc(S(=O)(=O)O)cc3cc(S(=O)(=O)O)cc(O)c23)c1 [4,4'[Ureylenebis(m-phenylenecarbonylimino)]bis[5-hydroxy-2,7-naphthalenedisulfonic acid]tetrasodium salt]

inhibition at 30 µg/mL [1]: 58%
SMILES: O=C(Nc1ccc(C(=O)Nc2cccc3cc(S(=O)(=O)O)cc(O)c23)c(S(=O)(=O)O)c1)Nc1ccc(C(=O)Nc2cccc3cc(S(=O)(=O)O)cc(O)c23)c(S(=O)(=O)O)c1 [5,5'-[Ureylenebis(2-sulfo-4,1-phenylenecarbonylimino)]bis[4-hydroxy-2-naphthalenesulfonic acid]tetrasodium salt]
